Drawing on article PMC7039006 (2020), this text covers binding and Kd for 3 molecules.

The subject of assay [1] is iM7 (C4T3C3) (DNA, i motif) CCCCTTTCCC
The assay is described as follows: CD melting at 290 nm. The conditions noted are these: 2 mM MgCl2; TAE pH 5; 50 μM DNA, 150 μM ThT; Tm stated unchanged.

The test system of assay [2] is TiM7 (5'-TGGA-C4T3C3) (DNA, i motif) TGGACCCCTTTCCC
The assay is described as follows: CD melting at 290 nm. Particulars: 2 mM MgCl2; TAE pH 5; 50 μM DNA, 150 μM ThT.

Assay [3] concerns 3'-GGGA on C3T3C4 (DNA, i motif) CCCTTTCCCCGGGA
The assay is described as follows: fluorescence enhancement. Particulars: 2 mM MgCl2; TAE pH 5, 22°C; 1 μM DNA, 3 μM ThT.

Assay [4] deals with 3'-GGGA on C4T3C5 (DNA, i motif) CCCCTTTCCCCCGGGA
Put plainly: fluorescence enhancement. Particulars: 2 mM MgCl2; TAE pH 5, 22°C; 1 μM DNA, 3 μM ThT.

Assay [5] deals with TiM9 (TGGAC5T3C4) (DNA, i motif) TGGACCCCCTTTCCCC
The assay is described as follows: fluorescence titration. Particulars: 2 mM MgCl2; TAE pH 5, 22°C; 3 μM ThT titrated with DNA.

Assay [6] relates to TiM7 (5'-TGGA-C4T3C3) (DNA, i motif) TGGACCCCTTTCCC
The assay is described as follows: fluorescence titration. The conditions noted are these: 2 mM MgCl2; TAE pH 5, 22°C; 3 μM ThT titrated with DNA.

Assay [7] relates to 5'-AGGA overhang on iM7 (DNA, i motif) AGGACCCCTTTCCC
Put plainly: fluorescence enhancement. The conditions noted are these: 2 mM MgCl2; TAE pH 5, 22°C; 1 μM DNA, 3 μM ThT.

In assay [8] the test system is 5'-AGGA overhang on iM9 (DNA, i motif) AGGACCCCCTTTCCCC
The assay is described as follows: fluorescence enhancement. The conditions noted are these: 2 mM MgCl2; TAE pH 5, 22°C; 1 μM DNA, 3 μM ThT.

Assay [9] has as its system 5'-GGA overhang on iM9 (DNA, i motif) GGACCCCCTTTCCCC
Put plainly: fluorescence enhancement. The conditions noted are these: 2 mM MgCl2; TAE pH 5, 22°C; 1 μM DNA, 3 μM ThT.

The test system of assay [10] is 5'-GGA overhang on iM7 (DNA, i motif) GGACCCCTTTCCC
The assay is described as follows: fluorescence enhancement. Particulars: 2 mM MgCl2; TAE pH 5, 22°C; 1 μM DNA, 3 μM ThT.

Assay [11] deals with iM9 (C5T3C4) (DNA, i motif) CCCCCTTTCCCC
The assay is described as follows: CD melting at 290 nm. Particulars: 2 mM MgCl2; TAE pH 5; 50 μM DNA, 150 μM ThT; Tm stated unchanged.

Assay [12] has as its system FNA-TiM9 (Th46/Th58 tetrahedron heterodimer tethered with TiM9) (DNA, other) TTCAGACGGAATGTGCTTCCCAAGTGTCGTTTGTATTGGCTCGCAT/TCAACTGGGTGATAAAACGACACTTGGGAATCTACTATGGCTCTTC/TATCACCCAGTTGACAGTGTAGCATGTAATAGATGCGAGCCAATAC/ACATTCCGTCTGAAACATTACATGCTACACGAGAAGAGCCATAGTATTTTTTTTATAAATAATTGGACCCCCTTTCCCC/TTCAGACTTAGGAATGTTGCTTCCCACGTAGTGTCGTGTTGGTATTGGACCCTCGCAT/TCAACTGCCTGGTGATAAAACACGACACTACGTGGGAATCTTACTATGGCGGCTCTTC/TTATCACCAGGCAGTTGACAGGTGTAGCAAGCTGTAATAGATGCGAGGGTCCAATACC/AACATTCCTAAGTCTGAAACATTACAGCTTGCTACACCGAGAAGAGCCGCCATAGTAATTTTTTAATATTTATAATGGACCCCCTTTCCCC
The assay is described as follows: fluorescence enhancement. The conditions noted are these: 2 mM MgCl2; TAE pH 5; 0.4 μM FNA, 0.4 μM ThT; over 20-fold fluorescence increase versus pH 8.

Assay [13] has as its system TiM9 (TGGAC5T3C4) (DNA, i motif) TGGACCCCCTTTCCCC
The assay is described as follows: CD melting at 290 nm. Particulars: 2 mM MgCl2; TAE pH 5; 50 μM DNA, 150 μM ThT.

In assay [14] the test system is 5'-AGAA overhang on iM7 (DNA, i motif) AGAACCCCTTTCCC
The assay is described as follows: fluorescence enhancement. Particulars: 2 mM MgCl2; TAE pH 5; 1 μM DNA, 3 μM DSMB.

The subject of assay [15] is 5'-AGCA overhang on iM7 (DNA, i motif) AGCACCCCTTTCCC
The assay is described as follows: fluorescence enhancement. Particulars: 2 mM MgCl2; TAE pH 5; 1 μM DNA, 3 μM THIA.

Take `Cc1ccc2c(c1)sc(-c1ccc(N(C)C)cc1)[n+]2C`: the binding result in assay [1] is reported as “weak”; in assay [2] it was “yes”; in [3] it was “yes”; in [4], “yes”; in [7] it was “yes”; in [8], “yes”. Moreover, the binding result in assay [9] is “weak”; in assay [10], “weak”; in assay [11], “weak”; in assay [12], “yes”; in assay [13] it was “yes”. The figures for the Kd in assay [5] and in assay [6] were ~ 5.7 μM and ~ 3.9 μM, respectively.
For `CN(C)c1ccc(/C=C/c2sc3ccccc3[n+]2C)cc1`, the binding entry in assay [14] is recorded as “yes”.
Consider `CCN1/C(=C/c2sc3ccccc3[n+]2CC)Sc2ccccc21`, for which, in [15], the binding result is reported as “yes”.
